Patent US11135214B2, “Methods for enhancing the bio availability and exposure of a voltage-gated potassium channel opener” (priority 2018, dated 2021)
Where “and” joins values, the source holds several entries; their conditions need not be identical. Equal entries are not always repeated. Entries after “also recorded” stand apart in the source; their conditions may differ. Where two headings read alike, the source gives them in different places.

Assays:
[1] = First-in-human SAD and MAD study, pharmacokinetics; assay type: in vivo
Experimental: A first-in-human study was conducted to evaluate the safety, tolerability and pharmacokinetics (PK) of single and multiple ascending doses (SAD and MAD) of oral Compound A.
In the SAD Phase, 32 healthy volunteers were randomized (3:1) to Compound A (5, 15, 20, 25 or 30 mg) or placebo. The study featured an adaptive design. A crossover food effect cohort (N=10) was also completed with single doses of 20 mg. A sub-set of 8 male subjects were also assessed with Transcranial Magnetic Stimulation (TMS) for effects on cortical excitability (see Examples 4 and 5).
Repeat doses of Compound A (15 mg QD) were evaluated in a fasted and fed state over 7 and 10 days, respectively. Repeat doses of Compound A (25 mg QD) were also evaluated in a fed state over 10 days.
Compound A was formulated as an immediate release capsule. Serial plasma PK samples were collected for all cohorts. Safety evaluations throughout the study included adverse event (AE) monitoring, clinical laboratory tests, vital signs, ECGs, physical examinations and Columbia-Suicide Severity Rating Scale.

[2] = tested on: GABA-A receptor mediated intracortical inhibition; assay: TMS crossover study, short-interval intracortical inhibition (SICI); assay type: in vivo, human; conditions: for Short Intracortical Inhibition (Mean Conditioned MEP/Mean Unconditioned MEP): individual subjects; for Short Intracortical Inhibition (Mean Conditioned MEP/Mean Unconditioned MEP) / Short Intracortical Inhibition (Mean Conditioned MEP/Mean Unconditioned MEP), Mean: ISI 2 ms; for Short Intracortical Inhibition (Mean Conditioned MEP/Mean Unconditioned MEP), Mean: mean of subjects
Experimental: Short-interval intracortical inhibition (SICI) was measured using 15 conditioning-test stimuli pairs given in a random order at an interstimulus interval (ISI) of 2 ms. The conditioning stimulus was set at 80% of AMT and the suprathreshold stimulus 120% RMT. The calculation of SICI utilized custom scripts to measure the amplitudes of conditioned and unconditioned motor evoked potentials (MEPs) and to express SICI as the ratio of mean conditioned MEPs over mean unconditioned MEPs.

cortical excitability = assay: TMS crossover study, global mean field power (GMFP); assay type: in vivo, human; conditions: 20 mg, pre-dose vs post-dose (FIG. 12)
Excerpt: Additional measures of cortical excitability including global mean field power were similarly impacted.

[3] = Open-label randomized two-period fed/fasted crossover study, plasma PK; conditions: human, in vivo
Excerpt: The study consisted of two Treatment Periods, Period 1 and Period 2. Each Treatment Period consisted of 7 days, with the dosing of Compound A occurring on Day 1. The two treatment periods were separated by a washout period of 10 days. The subjects were randomized into two groups. During Treatment Period 1, one group received an oral dose of Compound A while fasted and the other group received an oral dose of Compound A when fed. The group which fasted in Treatment Period 1 was fed in Treatment Period 2 and vice versa.
On Day 1 of each Treatment Period, each subject orally received 20 mg of Compound A (4 capsules with 5 mg of Compound A in each capsule).
During the fed period, following an overnight fast of at least 10 hours, a standard high fat, high calorie breakfast was given as per FDA guidance; the breakfast was given 30 minutes prior to the scheduled dosing time, and was completed 10 minutes before dosing. A representative breakfast included 2 slices of buttered toast, 2 fried eggs, 2 strips of bacon, 4 oz. of hash brown potatoes, and 8 oz. of whole milk.
During the fasted period, dosing occurred after an overnight fast of at least 10 hours. No food was allowed for 4 hours post-dose in either the fed or fasted period. Water was allowed as desired except for one hour before and after dosing.
For all subjects, blood samples for the determination of Compound A plasma concentration were collected at dosing (0.0 hours (time zero)) and at 0.5, 1.0, 1.5, 2.0, 3.0, 4.0, 6.0, 8.0, 12.0, 24.0, 32.0, 48.0 and 144.0 hours post-dose.

[4] = human, plasma, oral, 5 mg, SAD, 5 mg fasted, N=3, Mean ± SD
[5] = human, plasma, oral, 15 mg, MAD, 15 mg Fed, Day 1, N=6, mean
[6] = human, plasma, oral, 15 mg, MAD, 15 mg Fed, Day 10, N=6, mean
[7] = human, plasma, oral, 15 mg, MAD, 15 mg QD Fasted, Day 1, N=6, mean
[8] = human, plasma, oral, 15 mg, MAD, 15 mg QD Fasted, Day 7, N=6, mean
[9] = human, plasma, oral, 15 mg, SAD, 15 mg fasted, N=3, Mean ± SD
[10] = human, plasma, oral, 20 mg, SAD, 20 mg fasted, N=6, Mean ± SD
[11] = human, plasma, oral, 25 mg, MAD, 25 mg QD Fed, Day 1, N=6, mean
[12] = human, plasma, oral, 25 mg, MAD, 25 mg QD Fed, Day 10, N=6, mean
[13] = human, plasma, oral, 25 mg, SAD, 25 mg fed standard breakfast, N=6, Mean ± SD
[14] = human, plasma, oral, 30 mg, SAD, 30 mg fasted, N=6, Mean ± SD

Cc1cc(N2CCc3cc(F)ccc3C2)cc(C)c1NC(=O)CC(C)(C)C [Compound A, N-[4-(6-fluoro-3,4-dihydro-1H-isoquinolin-2-yl)-2,6-dimethylphenyl]-3,3-dimethylbutanamide]
absorption enhanced by food, AUCinf ([1]; crossover food effect cohort, 20 mg): ~1.8 fold
dose proportionality of exposure ([1]; fasted state): less than dose-proportional exposure
Cmax [1, 4]: 0.00713 ± 0.00612 µg/mL
Tmax [1, 4]: 3.17 ± 2.47 h
AUC(0-t) ([1]; human, plasma, oral, 5 mg, SAD, 5 mg fasted, N=3, Mean ± SD, read-out: AUC0-24): 0.0746 ± 0.0505 µg·h/mL
AUC(0-t) ([1]; human, plasma, oral, 5 mg, SAD, 5 mg fasted, N=3, tLast 32 h, Mean ± SD, read-out: AUC0-t): 0.0913 ± 0.0542 µg·h/mL
Cmax [1, 5]: 0.0359 µg/mL
Tmax [1, 5]: 4.37 h
AUC(0-t) ([1]; human, plasma, oral, 15 mg, MAD, 15 mg Fed, Day 1, N=6, mean, read-out: AUC0-24): 0.353 µg·h/mL
Cmax [1, 6]: 0.0608 µg/mL
Tmax [1, 6]: 3.69 h
AUC(0-t) ([1]; human, plasma, oral, 15 mg, MAD, 15 mg Fed, Day 10, N=6, mean, read-out: AUC0-24): 1.02 µg·h/mL
AUC(0-t) ([1]; human, plasma, oral, 15 mg, MAD, 15 mg Fed, Day 10, N=6, mean, read-out: AUC0-t): 4.95 µg·h/mL
Cmax [1, 7]: 0.0105 µg/mL
Tmax [1, 7]: 2.68 h
AUC(0-t) ([1]; human, plasma, oral, 15 mg, MAD, 15 mg QD Fasted, Day 1, N=6, mean, read-out: AUC0-24): 0.125 µg·h/mL
Cmax [1, 8]: 0.0451 µg/mL
Tmax [1, 8]: 2.69 h
AUC(0-t) ([1]; human, plasma, oral, 15 mg, MAD, 15 mg QD Fasted, Day 7, N=6, mean, read-out: AUC0-24): 0.757 µg·h/mL
AUC(0-t) ([1]; human, plasma, oral, 15 mg, MAD, 15 mg QD Fasted, Day 7, N=6, mean, read-out: AUC0-t): 4.26 µg·h/mL
Cmax [1, 9]: 0.0273 ± 0.0111 µg/mL
Tmax [1, 9]: 4.5 ± 2.6 h
AUC(0-t) ([1]; human, plasma, oral, 15 mg, SAD, 15 mg fasted, N=3, Mean ± SD, read-out: AUC0-24): 0.328 ± 0.141 µg·h/mL
AUC(0-t) ([1]; human, plasma, oral, 15 mg, SAD, 15 mg fasted, N=3, tLast 32 h, Mean ± SD, read-out: AUC0-t): 0.397 ± 0.166 µg·h/mL
Cmax [1, 10]: 0.0315 ± 0.0211 µg/mL
Tmax [1, 10]: 3.69 ± 2.05 h
AUC(0-t) ([1]; human, plasma, oral, 20 mg, SAD, 20 mg fasted, N=6, Mean ± SD, read-out: AUC0-24): 0.376 ± 0.22 µg·h/mL
AUC(0-t) ([1]; human, plasma, oral, 20 mg, SAD, 20 mg fasted, N=6, tLast 72 h, Mean ± SD, read-out: AUC0-t): 0.709 ± 0.337 µg·h/mL
Cmax [1, 11]: 0.0496 µg/mL
Tmax [1, 11]: 4.38 h
AUC(0-t) ([1]; human, plasma, oral, 25 mg, MAD, 25 mg QD Fed, Day 1, N=6, mean, read-out: AUC0-24): 0.592 µg·h/mL
Cmax [1, 12]: 0.0967 µg/mL
Tmax [1, 12]: 4.99 h
AUC(0-t) ([1]; human, plasma, oral, 25 mg, MAD, 25 mg QD Fed, Day 10, N=6, mean, read-out: AUC0-24): 1.72 µg·h/mL
AUC(0-t) ([1]; human, plasma, oral, 25 mg, MAD, 25 mg QD Fed, Day 10, N=6, mean, read-out: AUC0-t): 8.01 µg·h/mL
Cmax [1, 13]: 0.0458 ± 0.0143 µg/mL
Tmax [1, 13]: 4.51 ± 1.22 h
AUC(0-t) ([1]; human, plasma, oral, 25 mg, SAD, 25 mg fed standard breakfast, N=6, Mean ± SD, read-out: AUC0-24): 0.482 ± 0.13 µg·h/mL
AUC(0-t) ([1]; human, plasma, oral, 25 mg, SAD, 25 mg fed, N=6, tLast 146 h, Mean ± SD, read-out: AUC0-t): 1.47 ± 0.27 µg·h/mL
Cmax [1, 14]: 0.0355 ± 0.0335 µg/mL
Tmax [1, 14]: 3.17 ± 1.48 h
AUC(0-t) ([1]; human, plasma, oral, 30 mg, SAD, 30 mg fasted, N=6, Mean ± SD, read-out: AUC0-24): 0.369 ± 0.219 µg·h/mL
AUC(0-t) ([1]; human, plasma, oral, 30 mg, SAD, 30 mg fasted, N=6, tLast 72 h, Mean ± SD, read-out: AUC0-t): 0.837 ± 0.28 µg·h/mL
half-life at 10 days ([1]; human, plasma, oral, MAD, 15 mg Fed, Day 10, N=6, mean): 239 h
half-life at 7 days ([1]; human, plasma, oral, MAD, 15 mg QD Fasted, Day 7, N=6, mean): 167 h
half-life at 10 days ([1]; human, plasma, oral, MAD, 25 mg QD Fed, Day 10, N=6, mean): 218 h
half-life ([1]; human, plasma, oral, SAD, 5 mg fasted, N=3, Mean ± SD, read-out: T1/2 (converted)): 49.2 ± 31.1 h
half-life ([1]; human, plasma, oral, SAD, 15 mg fasted, N=3, Mean ± SD, read-out: T1/2 (converted)): 41.9 ± 31.1 h
half-life ([1]; human, plasma, oral, SAD, 20 mg fasted, N=6, Mean ± SD, read-out: T1/2 (converted)): 48.9 ± 14.7 h
half-life ([1]; human, plasma, oral, SAD, 25 mg fed standard breakfast, N=6, Mean ± SD, read-out: T1/2 (converted)): 97.2 ± 18 h
half-life ([1]; human, plasma, oral, SAD, 30 mg fasted, N=6, Mean ± SD, read-out: T1/2 (converted)): 63.4 ± 28.2 h
half-life ([1]; human, plasma, oral, immediate release formulation, read-out: effective half-life): > 24 h
dose proportionality of exposure ([1]; multiple doses, fed state): exposure increased in proportion to dose
apparent steady state achieved ([1]; multiple doses, 90% CI of successive day's exposure ratio within 0.8-1.25): 6 to 9 days
peak to trough ratio ([1]; once a day dosing): low
attainment of steady state ([1]; once per day dosing, without titration): 1 week
SICI (mean conditioned MEPs/mean unconditioned MEPs) ([2]; 20 mg single dose): no significant findings; also recorded: lack of an effect on SICI
Short Intracortical Inhibition (Mean Conditioned MEP/Mean Unconditioned MEP) ([2]; 2 h post-dose): 0.71 and 0.72 and 1.29 and 0.91 (2×) and 0.94 and 1.11 and 0.96 and 1.18 and 2.68 and 0.92 (2×) and 0.97 and 1.12 and 1.31 and 1.09 and 1.03 and 0.85 and 0.67
Short Intracortical Inhibition (Mean Conditioned MEP/Mean Unconditioned MEP) ([2]; 4 h post-dose): 1.03 (2×) and 0.93 and 0.54 and 1.20 and 1.68 and 1.64 and 0.86 and 0.61 and 1.01 and 1.53 and 1.04 and 1.17 and 0.89 and 1.27 and 0.87 and 0.75 and 1.07 and 1.02
Short Intracortical Inhibition (Mean Conditioned MEP/Mean Unconditioned MEP), Mean ([2]; 2 h post-dose): 1.07
Short Intracortical Inhibition (Mean Conditioned MEP/Mean Unconditioned MEP), Mean ([2]; 4 h post-dose): 1.06
global mean field power (GMFP) (cortical excitability): reduction of cortical excitability over time
concentration at 3 h ([3]; both sexes, fed, 20 mg oral, 3.0 h, individual subjects, read-out: Compound A Concentration): 0.104 µg/mL
Cmax ([3]; both sexes, fed, 20 mg oral, individual subjects): 0.104 µg/mL
bioavailability and exposure, fed compared to fasted conditions ([3]; po, 20 mg): significantly enhanced
